Results from PubChem BioAssay (NCI).
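Cultured in 96-well plates, cells were exposed to test compound for 48 hours across five concentrations. GI50 = concentration required for 50% inhibition of growth. At the TGI there is no net growth.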

Tests used:
Assay in all cases: DTP human tumour cell line panel, 48 h
KM12 colon = test system: KM12 colon
NCI/ADR-RES ovarian = test system: NCI/ADR-RES ovarian
ACHN renal = test system: ACHN renal
SK-MEL-2 melanoma = test system: SK-MEL-2 melanoma
K-562 leukemia = test system: K-562 leukemia
IGROV1 ovarian = test system: IGROV1 ovarian
OVCAR-5 ovarian = test system: OVCAR-5 ovarian
SF-539 CNS = test system: SF-539 CNS
NCI-H460 lung = test system: NCI-H460 lung
U251 CNS = test system: U251 CNS
UACC-62 melanoma = test system: UACC-62 melanoma
SR leukemia = test system: SR leukemia
MDA-MB-231 breast = test system: MDA-MB-231 breast
SNB-75 CNS = test system: SNB-75 CNS
M14 melanoma = test system: M14 melanoma
TK-10 renal = test system: TK-10 renal
PC-3 prostate = test system: PC-3 prostate
RPMI-8226 leukemia = test system: RPMI-8226 leukemia
SW-620 colon = test system: SW-620 colon
HS 578T breast = test system: HS 578T breast
LOX IMVI melanoma = test system: LOX IMVI melanoma
BT-549 breast = test system: BT-549 breast
OVCAR-8 ovarian = test system: OVCAR-8 ovarian
A498 renal = test system: A498 renal
SN12C renal = test system: SN12C renal
HOP-62 NSCLC = test system: HOP-62 NSCLC
MCF7 breast = test system: MCF7 breast
SK-MEL-28 melanoma = test system: SK-MEL-28 melanoma
UO-31 renal = test system: UO-31 renal
SF-268 CNS = test system: SF-268 CNS
786-0 renal = test system: 786-0 renal
HL-60(TB) leukemia = test system: HL-60(TB) leukemia
OVCAR-3 ovarian = test system: OVCAR-3 ovarian
SK-OV-3 ovarian = test system: SK-OV-3 ovarian
HCT-116 colon = test system: HCT-116 colon
HCT-15 colon = test system: HCT-15 colon
A549 NSCLC = test system: A549 NSCLC
EKVX NSCLC = test system: EKVX NSCLC
NCI-H522 lung = test system: NCI-H522 lung
SF-295 CNS = test system: SF-295 CNS
T-47D breast = test system: T-47D breast
CCRF-CEM leukemia = test system: CCRF-CEM leukemia
HOP-92 NSCLC = test system: HOP-92 NSCLC
RXF 393 renal = test system: RXF 393 renal
OVCAR-4 ovarian = test system: OVCAR-4 ovarian
HCC-2998 colon = test system: HCC-2998 colon
SNB-19 CNS = test system: SNB-19 CNS
HT29 colon = test system: HT29 colon
MALME-3M melanoma = test system: MALME-3M melanoma
NCI-H226 lung = test system: NCI-H226 lung
MDA-MB-435 = test system: MDA-MB-435
SK-MEL-5 melanoma = test system: SK-MEL-5 melanoma
NCI-H23 lung = test system: NCI-H23 lung
COLO 205 colon = test system: COLO 205 colon
CAKI-1 renal = test system: CAKI-1 renal
UACC-257 melanoma = test system: UACC-257 melanoma
DU-145 prostate = test system: DU-145 prostate
MOLT-4 leukemia = test system: MOLT-4 leukemia

O=C(NNc1nc2cc(F)cc(F)c2n2cccc12)c1ccncn1
GI50 (KM12 colon): > 30 µM
TGI (KM12 colon): > 30 µM
GI50 (NCI/ADR-RES ovarian): > 30 µM
TGI (NCI/ADR-RES ovarian): > 30 µM
GI50 (ACHN renal): > 30 µM
TGI (ACHN renal): > 30 µM
GI50 (SK-MEL-2 melanoma): > 30 µM
TGI (SK-MEL-2 melanoma): > 30 µM
GI50 (K-562 leukemia): > 30 µM
TGI (K-562 leukemia): > 30 µM
GI50 (IGROV1 ovarian): > 30 µM
TGI (IGROV1 ovarian): > 30 µM
GI50 (OVCAR-5 ovarian): > 30 µM
TGI (OVCAR-5 ovarian): > 30 µM
GI50 (SF-539 CNS): > 30 µM
TGI (SF-539 CNS): > 30 µM
GI50 (NCI-H460 lung): > 30 µM
TGI (NCI-H460 lung): > 30 µM
GI50 (U251 CNS): > 30 µM
TGI (U251 CNS): > 30 µM
GI50 (UACC-62 melanoma): > 30 µM
TGI (UACC-62 melanoma): > 30 µM
GI50 (SR leukemia): > 30 µM
TGI (SR leukemia): > 30 µM
GI50 (MDA-MB-231 breast): > 30 µM
TGI (MDA-MB-231 breast): > 30 µM
GI50 (SNB-75 CNS): > 30 µM
TGI (SNB-75 CNS): > 30 µM
GI50 (M14 melanoma): > 30 µM
TGI (M14 melanoma): > 30 µM
GI50 (TK-10 renal): > 30 µM
TGI (TK-10 renal): > 30 µM
GI50 (PC-3 prostate): > 30 µM
TGI (PC-3 prostate): > 30 µM
GI50 (RPMI-8226 leukemia): > 30 µM
TGI (RPMI-8226 leukemia): > 30 µM
GI50 (SW-620 colon): > 30 µM
TGI (SW-620 colon): > 30 µM
GI50 (HS 578T breast): > 30 µM
TGI (HS 578T breast): > 30 µM
GI50 (LOX IMVI melanoma): > 30 µM
TGI (LOX IMVI melanoma): > 30 µM
GI50 (BT-549 breast): > 30 µM
TGI (BT-549 breast): > 30 µM
GI50 (OVCAR-8 ovarian): > 30 µM
TGI (OVCAR-8 ovarian): > 30 µM
GI50 (A498 renal): > 30 µM
TGI (A498 renal): > 30 µM
GI50 (SN12C renal): > 30 µM
TGI (SN12C renal): > 30 µM
GI50 (HOP-62 NSCLC): > 30 µM
TGI (HOP-62 NSCLC): > 30 µM
GI50 (MCF7 breast): > 30 µM
TGI (MCF7 breast): > 30 µM
GI50 (SK-MEL-28 melanoma): > 30 µM
TGI (SK-MEL-28 melanoma): > 30 µM
GI50 (UO-31 renal): > 30 µM
TGI (UO-31 renal): > 30 µM
GI50 (SF-268 CNS): > 30 µM
TGI (SF-268 CNS): > 30 µM
GI50 (786-0 renal): > 30 µM
TGI (786-0 renal): > 30 µM
GI50 (HL-60(TB) leukemia): > 30 µM
TGI (HL-60(TB) leukemia): > 30 µM
GI50 (OVCAR-3 ovarian): > 30 µM
TGI (OVCAR-3 ovarian): > 30 µM
GI50 (SK-OV-3 ovarian): > 30 µM
TGI (SK-OV-3 ovarian): > 30 µM
GI50 (HCT-116 colon): > 30 µM
TGI (HCT-116 colon): > 30 µM
GI50 (HCT-15 colon): > 30 µM
TGI (HCT-15 colon): > 30 µM
GI50 (A549 NSCLC): > 30 µM
TGI (A549 NSCLC): > 30 µM
GI50 (EKVX NSCLC): > 30 µM
TGI (EKVX NSCLC): > 30 µM
GI50 (NCI-H522 lung): > 30 µM
TGI (NCI-H522 lung): > 30 µM
GI50 (SF-295 CNS): > 30 µM
TGI (SF-295 CNS): > 30 µM
GI50 (T-47D breast): > 30 µM
TGI (T-47D breast): > 30 µM
GI50 (CCRF-CEM leukemia): > 30 µM
TGI (CCRF-CEM leukemia): > 30 µM
GI50 (HOP-92 NSCLC): > 30 µM
TGI (HOP-92 NSCLC): > 30 µM
GI50 (RXF 393 renal): > 30 µM
TGI (RXF 393 renal): > 30 µM
GI50 (OVCAR-4 ovarian): > 30 µM
TGI (OVCAR-4 ovarian): > 30 µM
GI50 (HCC-2998 colon): > 30 µM
TGI (HCC-2998 colon): > 30 µM
GI50 (SNB-19 CNS): > 30 µM
TGI (SNB-19 CNS): > 30 µM
GI50 (HT29 colon): > 30 µM
TGI (HT29 colon): > 30 µM
GI50 (MALME-3M melanoma): > 30 µM
TGI (MALME-3M melanoma): > 30 µM
GI50 (NCI-H226 lung): > 30 µM
TGI (NCI-H226 lung): > 30 µM
GI50 (MDA-MB-435): > 30 µM
TGI (MDA-MB-435): > 30 µM
GI50 (SK-MEL-5 melanoma): > 30 µM
TGI (SK-MEL-5 melanoma): > 30 µM
GI50 (NCI-H23 lung): > 30 µM
TGI (NCI-H23 lung): > 30 µM
GI50 (COLO 205 colon): > 30 µM
TGI (COLO 205 colon): > 30 µM
GI50 (CAKI-1 renal): > 30 µM
TGI (CAKI-1 renal): > 30 µM
GI50 (UACC-257 melanoma): > 30 µM
TGI (UACC-257 melanoma): > 30 µM
GI50 (DU-145 prostate): > 30 µM
TGI (DU-145 prostate): > 30 µM
GI50 (MOLT-4 leukemia): > 30 µM
TGI (MOLT-4 leukemia): > 30 µM
